Experiments:
Assay type in all cases: cell-based
RARβ = target: T1, RARβ (Homo sapiens, UniProt P10826); experiment: Gal4 hybrid reporter gene assay RARβ (selectivity profiling)
T1 construct: expressed in transfected cells; host or cells: HEK293T
T1 sequence (P10826 183-417 limits assumed): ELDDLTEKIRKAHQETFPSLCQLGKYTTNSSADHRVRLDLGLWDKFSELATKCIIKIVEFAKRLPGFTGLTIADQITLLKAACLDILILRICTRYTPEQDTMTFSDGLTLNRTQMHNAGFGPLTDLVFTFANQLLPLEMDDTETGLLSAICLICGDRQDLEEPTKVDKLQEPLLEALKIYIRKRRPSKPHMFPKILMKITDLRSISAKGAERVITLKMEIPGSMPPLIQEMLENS
Method: (§1) Moreover, 7 was characterized for its ability to modulate RXR target gene expression under more physiological conditions. Hepatoma cells (HepG2) were incubated with 7 (30 µM) or reference RXR agonist bexarotene (9, 1 µM) for eight hours and mRNA expression of RXR regulated genes ATP-binding cassette transporter A1 (ABCA1), angiopoietin like protein 4 (ANGPTL4) and apolipoprotein E (ApoE) was analysed by quantitative real-time PCR.
(§2) The Gal4 hybrid reporter gene assays were conducted as reported previously[39]–[41]. pFA-CMV-based constructs comprising the ligand binding domain of the human nuclear receptor in question were used as expression plasmids for the chimera receptors. pFR-Luc (Stratagene) served as reporter plasmid and pRL-SV40 (Promega) for normalization of transfection efficiency and cell growth. The assays were conducted in 96-well format in HEK293T cells that were cultured as described previously[39]–[41]. Transient transfection was carried out using Lipofectamine LTX reagent (Invitrogen) according to the manufacturer’s protocol. After transfection and incubation with test compounds (12–14 h), cells were assayed for luciferase activity using Dual-Glo™ Luciferase Assay System (Promega) according to the manufacturer’s protocol. Luminescence was measured with an Infinite M200 luminometer (Tecan Deutschland GmbH). […]

[1] = target: T2, constitutive androstane receptor [CAR] (Homo sapiens, UniProt Q14994); experiment: Gal4 hybrid reporter gene assay CAR (selectivity profiling)
T2 construct: expressed in transfected cells; host or cells: HEK293T
T2 sequence (Q14994 109-352 limits assumed): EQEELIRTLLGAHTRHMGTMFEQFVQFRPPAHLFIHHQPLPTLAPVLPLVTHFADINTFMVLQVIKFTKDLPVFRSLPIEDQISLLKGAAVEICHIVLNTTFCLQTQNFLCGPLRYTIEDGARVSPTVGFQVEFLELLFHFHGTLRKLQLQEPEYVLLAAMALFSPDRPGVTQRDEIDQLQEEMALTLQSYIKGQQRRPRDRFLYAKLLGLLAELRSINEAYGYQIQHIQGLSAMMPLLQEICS
Method: as §1, §2

[2] = system: angiopoietin like protein 4 (ANGPTL4) mRNA in HepG2 cells; experiment: Target gene quantification (quantitative real-time PCR), ANGPTL4; settings: HepG2, 7 at 30 µM versus bexarotene at 1 µM, 8 h, qRT-PCR
Method: as §1
HepG2 cells were incubated with test compound 7 (30 µM) or bexarotene (1 µM) as positive control each dissolved in 0.1% DMSO or 0.1% DMSO alone as untreated control for 8 h, harvested, washed with cold phosphate buffered saline (PBS) and then directly used for RNA extraction with the Total RNA Mini Kit (R6834-02, Omega Bio-Tek, Inc., Norcross, GA, USA). 2 µg RNA were reverse-transcribed into cDNA using the High-Capacity cDNA Reverse Transcription Kit (4368814, Thermo Fischer Scientific, Inc.). RXR target gene expression was evaluated by quantitative real time PCR analysis with a StepOnePlus™ System (Life Technologies, Carlsbad, CA, USA) using PowerSYBRGreen (Life Technologies; 12.5 µl per well) and the primers reported in Supplementary Table 4[58]. […] The expression was quantified by the comparative ∆∆Ct method. […] Results are expressed as mean ± standard error of the mean (SEM) relative mRNA expression compared to DMSO (0.1%) control which was set as 1.

In the case of CC(C)(C)c1cc(/C=N/NC(=O)c2ccc(N)cc2)cc(C(C)(C)C)c1 [Compound 7], the “activity on RARβ” value (RARβ) is reported as “no activity”, the “activity on CAR” value [1] is reported as “no activity” and the “induction of ANGPTL4 mRNA expression” value [2] is reported as “comparable efficacy as RXR agonist bexarotene”.
